The results in this text go back to patent publication US7183252B2, “Indole peptidomimetics as thrombin receptor antagonists” (Ortho-McNeil Pharmaceutical, Inc., priority 1999, dated 2007).

One experiment relates to gel-filtered platelets. Nature of the experiment: In vitro inhibition of thrombin-induced gel-filtered platelet aggregation. The experiment is classed as cell-based. The following applies: human gel-filtered platelets, agonist thrombin 50 μL of 1 unit/mL, read-out: Thrmb IC50 (Thrombin-induced aggregation of gel-filtered platelets). The method, then:
In Vitro Inhibition of Thrombin-Induced Gel-Filtered Platelet Aggregation Assay
The percentage of platelet aggregation is calculated as an increase in light transmission of compound-treated platelet concentrate vs. control-treated platelet concentrate. Human blood is obtained from drug free, normal donors in tubes containing 0.13M sodium citrate. Platelet rich plasma (PRP) is collected by centrifugation of whole blood at 200×g for 10 min at 25° C. The PRP (5 mL) is gel filtered through Sepharose 2B (bed volume 50 mL), and the platelet count is adjusted to 2×10^7 platelets per sample. The following constituents are added to a siliconized cuvette: concentrated platelet filtrate and Tyrode's buffer (0.14M NaCl, 0.0027M KCl, 0.012M NaHCO3, 0.76 mM Na2HPO4, 0.0055M glucose, 2 mg/mL BSA and 5.0 mM HEPES @ pH 7.4) in an amount equal to 350 μL 50 μL of 20 mM calcium and 50 μL of the test compound. Aggregation is monitored in a BIODATA aggregometer for the 3 min following the addition of agonist (thrombin 50 μL of 1 unit/mL).
(§1) Table 7 contains IC50 values (μM) of the compounds in a thrombin receptor binding assay, and IC50 values (μM) against platelet aggregation stimulated by thrombin.

The target of experiment [1] is T1, thrombin receptor (PAR-1) (Homo sapiens, UniProt P25116).
T1 construct: CHRF membranes (Jones, Biochim. Biophys. Acta 1992, 1136, 272) are thawed from −70° C; endogenous in cells; host or cells: CHRF cell membranes
T1 sequence (P25116 22-425): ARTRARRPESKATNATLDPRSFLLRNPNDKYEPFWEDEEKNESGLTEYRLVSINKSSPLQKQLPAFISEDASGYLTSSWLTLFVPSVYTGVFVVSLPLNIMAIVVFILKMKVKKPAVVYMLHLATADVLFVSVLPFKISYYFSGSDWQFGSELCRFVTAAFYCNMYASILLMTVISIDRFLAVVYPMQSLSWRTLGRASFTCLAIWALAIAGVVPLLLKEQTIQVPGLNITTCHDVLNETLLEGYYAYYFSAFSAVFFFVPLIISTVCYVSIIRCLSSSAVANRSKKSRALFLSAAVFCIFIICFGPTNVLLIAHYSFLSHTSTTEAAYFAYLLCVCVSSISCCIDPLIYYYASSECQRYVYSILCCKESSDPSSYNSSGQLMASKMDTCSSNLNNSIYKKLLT
The experiment is described as follows: In vitro thrombin receptor binding assay (CHRF membranes). The note with it: tritiated 721-40 radioligand, read-out: Bndg IC50 (Thrombin receptor binding). On the procedure: In Vitro Thrombin Receptor Binding Assay
CHRF membranes (Jones, Biochim. Biophys. Acta 1992, 1136, 272) are thawed from −70° C., centrifuged at maximum speed for 5 min, washed twice with binding buffer (50 mM HEPES containing 5 mM MgCl2 and 0.1% BSA), and re-suspended in binding buffer (25 μg/[…]). 100 μL of membranes are added to the 24-Wallac plates and delivered to the Tomtech apparatus. In a typical experiment, 6 μL of samples (from a 125 μg/mL intermediary plate, 20% DMSO) and 44 μL buffer are delivered to the plates (final conc. of compounds is 3.7 μg/mL, 0.6% DMSO). Similarly, 6 μL 20% DMSO and 44 μL buffer are delivered to both column 1 (NSB) and column 12 (TB). 10 μL Ser-pFPhe-Har-Leu-Har-Lys-Tyr-NH2 (721–40; 500 μM in deionized water) is added to column 1. 50 μL tritiated 721–40 (specific activity 46 Ci/mmol) is added to all the wells. The plates are mixed well for 20 seconds, incubated for 30 min,and then harvested with 10 mM HEPES/138 mM NaCl using the Skatron harvester. The filters (GF/C Brandel FPXLR 296) are presoaked 3 h in 0.5% polyethylenimine in HEPES/0.1M N-acetylglucosamine) are set in saran wrap and dried for 3 min in the microwave, and placed in sample bags (Wallac 1450-432). 4.5 mL scintillation fluid (Wallac, Betaplate Scint 1205-440) is added. The bags are sealed, placed in filter cassettes (Wallac 1450-104), and analyzed on the microbeta counter.
as §1

Like-named read-outs stand apart in the source and are kept apart here.

Turning to `COc1ccc(C[C@H](NC(=O)Nc2ccc3c(CN4CCCC4)cn(Cc4ccc(F)cc4)c3c2)C(=O)N[C@@H](CCCNC(=N)N)C(=O)NCc2ccccc2)cc1` [Compound 1], the IC50 in the experiment with gel-filtered platelets (Platelet) was found to be 0.83 µM; in experiment [1], 0.6 µM.

For the compound `COc1ccc(C[C@H](NC(=O)Nc2ccc3c(CN4CCCC4)cn(Cc4ccc(C)cc4)c3c2)C(=O)N[C@@H](CCCN=C(N)N)C(=O)NCc2ccccc2)cc1` [Compound 2], the values for the IC50 (with gel-filtered platelets (Platelet); in experiment [1]) were 7.8 µM and 33.6 µM, respectively.

In the case of `COc1ccc(C[C@H](NC(=O)Nc2ccc3c(CNC4CCCC4)cn(Cc4ccc(F)cc4)c3c2)C(=O)N[C@@H](CCCNC(=N)N)C(=O)NCc2ccccc2)cc1` [Compound 3], the figures for the IC50 (in the experiment on gel-filtered platelets (Platelet); in experiment [1]) were 21.4 µM and 10.7 µM, respectively.

As to `COc1ccc(C[C@H](NC(=O)Nc2ccc3c(CN4CCCC4)cn(Cc4ccc(F)cc4)c3c2)C(=O)N[C@@H](CCCNC(=N)N)C(=O)NCCCc2ccccc2)cc1` [Compound 4], the IC50 in the experiment with gel-filtered platelets (Platelet) was 14.7 µM; in experiment [1], 1.3 µM.

As for `CCN(CC)Cc1cn(Cc2ccc(F)cc2)c2cc(NC(=O)N[C@@H](Cc3ccc(OC)cc3)C(=O)N[C@@H](CCCNC(=N)N)C(=O)NCCCc3ccccc3)ccc12` [Compound 5], the IC50 with gel-filtered platelets (Platelet) was 2.9 µM; in experiment [1] it was 1.8 µM.

As to `COc1ccc(C[C@H](NC(=O)Nc2ccc3c(CN4CCCC4)cn(Cc4cccc(F)c4)c3c2)C(=O)N[C@@H](CCCNC(=N)N)C(=O)NCc2ccccc2)cc1` [Compound 6], the IC50 was 3.5 µM with gel-filtered platelets (Platelet) and 6.6 µM in experiment [1].

`COc1ccc(C[C@H](NC(=O)Nc2ccc3c(CN4CCCC4)cn(Cc4ccccc4F)c3c2)C(=O)N[C@@H](CCCNC(=N)N)C(=O)NCc2ccccc2)cc1` [Compound 7]: the IC50 in the experiment on gel-filtered platelets (Platelet) is 1.31 µM; in experiment [1], 3.6 µM.

Consider `COc1ccc(C[C@H](NC(=O)Nc2ccc3c(CN4CCCCC4)cn(Cc4ccc(F)cc4)c3c2)C(=O)N[C@@H](CCCNC(=N)N)C(=O)NCC2CCCCC2)cc1` [Compound 8], for which the IC50 in the experiment on gel-filtered platelets (Platelet) worked out at 8 µM; in experiment [1] it was 2.3 µM.

For the compound `COc1ccc(C[C@H](NC(=O)Nc2ccc3c(CN4CCCC4)cn(Cc4cccc(C)c4)c3c2)C(=O)N[C@@H](CCCNC(=N)N)C(=O)NCC2CCCCC2)cc1` [Compound 9], the results for the IC50 (in the experiment on gel-filtered platelets (Platelet); in experiment [1]) were 2.5 µM and 10.4 µM, respectively.

Regarding `COC(=O)c1ccc(Cn2cc(CN3CCCCC3)c3ccc(NC(=O)N[C@@H](Cc4ccc(OC)cc4)C(=O)N[C@@H](CCCN=C(N)N)C(=O)NCC4CCCCC4)cc32)cc1` [Compound 10], the IC50 is over 10 µM in the experiment with gel-filtered platelets (Platelet) and 4.8 µM in experiment [1].

Consider `COc1ccc(C[C@H](NC(=O)Nc2ccc3c(CN4CCCC4)cn(Cc4ccc(OC(F)(F)F)cc4)c3c2)C(=O)N[C@@H](CCCNC(=N)N)C(=O)NCC2CCCCC2)cc1` [Compound 11], for which the values for the IC50 (with gel-filtered platelets; in experiment [1]) were 19.9 µM and 2.5 µM, respectively.

With `COc1ccc(C[C@H](NC(=O)Nc2ccc3c(CN4CCCC4)cn(Cc4ccc(S(C)(=O)=O)cc4)c3c2)C(=O)N[C@@H](CCCNC(=N)N)C(=O)NCc2ccccc2)cc1` [Compound 12], the IC50 was 43.2 µM with gel-filtered platelets (Platelet) and 15.9 µM in experiment [1].

For `COc1ccc(C[C@H](NC(=O)Nc2ccc3c(CN4CCCC4)cn(Cc4ccc(C#N)cc4)c3c2)C(=O)N[C@@H](CCCNC(=N)N)C(=O)NCc2ccccc2)cc1` [Compound 13], the IC50 in the experiment on gel-filtered platelets (Platelet) amounted to 16.2 µM; in experiment [1], 4.5 µM.

For the compound `COc1ccc(C[C@H](NC(=O)Nc2ccc3c(CN4CCCC4)cn(Cc4c(Cl)cccc4Cl)c3c2)C(=O)N[C@@H](CCCNC(=N)N)C(=O)NCc2ccccc2)cc1` [Compound 14], the results for the IC50 (in the experiment with gel-filtered platelets (Platelet); in experiment [1]) were 0.49 µM and 1.4 µM, respectively.

As to `COc1ccc(C[C@H](NC(=O)Nc2ccc3c(CN4CCCC4)cn(Cc4ccc5ccccc5c4)c3c2)C(=O)N[C@@H](CCCNC(=N)N)C(=O)NCc2ccccc2)cc1` [Compound 15], the IC50 in the experiment with gel-filtered platelets (Platelet) was found to be 11.8 µM; in experiment [1], 4.3 µM.

Regarding `COc1ccc(C[C@H](NC(=O)Nc2ccc3c(CN4CCCC4)cn(Cc4cccc(OC)c4)c3c2)C(=O)N[C@@H](CCCNC(=N)N)C(=O)NCc2ccccc2)cc1` [Compound 16], the results for the IC50 (in the experiment on gel-filtered platelets (Platelet); in experiment [1]) were 25.8 µM and 11.5 µM, respectively.

For the compound `COc1ccc(C[C@H](NC(=O)Nc2ccc3c(CN4CCCC4)cn(Cc4ccccc4C)c3c2)C(=O)N[C@@H](CCCNC(=N)N)C(=O)NCc2ccccc2)cc1` [Compound 17], the IC50 in the experiment with gel-filtered platelets (Platelet) was determined as 0.42 µM; in experiment [1] it was 0.97 µM.

In the case of `COc1ccc(C[C@H](NC(=O)Nc2ccc3c(CN4CCCC4)cn(Cc4ccc(C(F)(F)F)cc4)c3c2)C(=O)N[C@@H](CCCNC(=N)N)C(=O)NCc2ccccc2)cc1` [Compound 18], the IC50 in the experiment with gel-filtered platelets (Platelet) was 14 µM; in experiment [1], 3.7 µM.

For `COc1ccc(C[C@H](NC(=O)Nc2ccc3c(CN4CCCC4)cn(Cc4ccc(Cl)cc4)c3c2)C(=O)N[C@@H](CCCNC(=N)N)C(=O)NCc2ccccc2)cc1` [Compound 19], the values for the IC50 (in the experiment on gel-filtered platelets (Platelet); in experiment [1]) were 3.2 µM and 1.6 µM, respectively.

Take `COc1ccc(C[C@H](NC(=O)Nc2ccc3c(CN4CCCC4)cn(Cc4ccc(OC)cc4)c3c2)C(=O)N[C@@H](CCCNC(=N)N)C(=O)NCc2ccccc2)cc1` [Compound 20]: the IC50 in the experiment on gel-filtered platelets (Platelet) was found to be 26.6 µM; in experiment [1], 17.1 µM.

As to `COc1ccc(C[C@H](NC(=O)Nc2ccc3c(CN4CCCC4)cn(Cc4ccc(F)c(F)c4)c3c2)C(=O)N[C@@H](CCCNC(=N)N)C(=O)NCc2ccccc2)cc1` [Compound 21], the IC50 is 3.2 µM with gel-filtered platelets (Platelet) and 1.1 µM in experiment [1].

For the compound `COc1ccc(C[C@H](NC(=O)Nc2ccc3c(CN4CCCC4)cn(Cc4ccccc4)c3c2)C(=O)N[C@@H](CCCNC(=N)N)C(=O)NCc2ccccc2)cc1` [Compound 22], the IC50 in the experiment on gel-filtered platelets (Platelet) turned out to be 3 µM; in experiment [1], 4 µM.

`COc1ccc(C[C@H](NC(=O)Nc2ccc3c(CN4CCCC4)cn(Cc4ccc(I)cc4)c3c2)C(=O)N[C@@H](CCCNC(=N)N)C(=O)NCc2ccccc2)cc1` [Compound 23]: the IC50 in the experiment with gel-filtered platelets (Platelet) came to 8.6 µM; in experiment [1] it was 3.1 µM.

Take `N=C(N)NCCC[C@H](NC(=O)[C@H](Cc1ccncc1)NC(=O)Nc1ccc2c(CN3CCCC3)cn(Cc3ccc(F)cc3)c2c1)C(=O)NCc1ccccc1` [Compound 24]: the IC50 in the experiment on gel-filtered platelets (Platelet) was 34.8 µM; in experiment [1], 4.8 µM.

Turning to `N=C(N)NCCC[C@H](NC(=O)[C@H](CC1CCCCC1)NC(=O)Nc1ccc2c(CN3CCCC3)cn(Cc3ccc(F)cc3)c2c1)C(=O)NCc1ccccc1` [Compound 25], in the experiment with gel-filtered platelets, the IC50 was 37.1 µM.

For the compound `N=C(N)NCCC[C@H](NC(=O)[C@H](Cc1ccc(F)cc1)NC(=O)Nc1ccc2c(CN3CCCC3)cn(Cc3ccc(F)cc3)c2c1)C(=O)NCc1ccccc1` [Compound 26], the IC50 turned out to be 0.55 µM in the experiment on gel-filtered platelets (Platelet) and 4.3 µM in experiment [1].

In the case of `NC(N)=NCCC[C@H](NC(=O)[C@H](CCc1ccccc1)NC(=O)Nc1ccc2c(CN3CCCC3)cn(Cc3ccc(F)cc3)c2c1)C(=O)NCc1ccccc1` [Compound 27], the IC50 was 27.3 µM in the experiment with gel-filtered platelets (Platelet) and 14.6 µM in experiment [1].

Turning to `COC(=O)C(NC(=O)C(CCN)NC(=O)C(Cc1ccc(F)c(F)c1)NC(=O)Nc1ccc2c(CN3CCCC3)cn(Cc3c(Cl)cccc3Cl)c2c1)c1ccccc1` (stereo not shown) [Compound 160], the IC50 in the experiment on gel-filtered platelets was found to be 0.6 µM.

`NCCC(NC(=O)C(Cc1ccc(F)c(F)c1)NC(=O)Nc1ccc2c(CN3CCCC3)cn(Cc3c(Cl)cccc3Cl)c2c1)C(=O)NC(CO)c1ccccc1` (stereo not shown) [Compound 161]: the IC50 with gel-filtered platelets turned out to be 0.52 µM.

Usually IC50 stands for the point on the concentration scale where inhibition reaches its midpoint.
